Where two headings read alike, the source gives them in different places.
Tests used:
[1] = test system: beta-2; settings: Yoshizaki et al, J. Med. Chem. 1977; cited from earlier work
[2] = test system: adenylate cyclase; test: Stimulation of adenylate cyclase activity in rat reticulocyte membranes; format: biochemical; settings: for Intrinsic Activity, adenylate cyclase: as compared to (-)isoproterenol which was set to 1.0, 10 min; for intrinsic activity (efficacy) in words: compared with (-)isoproterenol; for EC50: rat reticulocyte membranes, mean ±SE, n = 3-6, read-out: EC50 (concentration that produced half-maximal enzyme activation), adenylate cyclase
Protocol: Biochemical Methods. Adenylate Cyclase Activity. Rat reticulocytes were induced and membranes prepared as described by Baker et al, J. Biol. Chem., Vol. 260, p. […] These are the basal conditions. […] At the end of the incubation, 0.3 ml of 10 mM Tris.HCl buffer at pH 7.0 containing 5 mM EDTA was added to each tube and the tubes were placed in a boiling water bath for 5 min. After cooling to room temperature, the tubes were centrifuged for 5 min at 10000 g and the supernatant saved. The cAMP content of the supernatant was determined by a competitive protein binding assay. The amount of cAMP present was calculated from a standard curve determined with unlabeled cAMP. […] Basal and GTP-stimulated activity values were substracted from the values obtained in the presence of ligands and the concentration of ligands that produced half-maximal activity (EC50) were determined by using a dose-effect analysis with an Apple IIe computer. Membrane protein content was determined by the Lowry method with bovine serum albumin as standard.

[3] = biological target: T1, beta-adrenergic receptor (Rattus norvegicus, UniProt P10608); test: [^125 I]iodocyanopindolol (CYP) competition binding to the beta-adrenergic receptor in rat reticulocyte membranes
T1 sequence (P10608 whole entry): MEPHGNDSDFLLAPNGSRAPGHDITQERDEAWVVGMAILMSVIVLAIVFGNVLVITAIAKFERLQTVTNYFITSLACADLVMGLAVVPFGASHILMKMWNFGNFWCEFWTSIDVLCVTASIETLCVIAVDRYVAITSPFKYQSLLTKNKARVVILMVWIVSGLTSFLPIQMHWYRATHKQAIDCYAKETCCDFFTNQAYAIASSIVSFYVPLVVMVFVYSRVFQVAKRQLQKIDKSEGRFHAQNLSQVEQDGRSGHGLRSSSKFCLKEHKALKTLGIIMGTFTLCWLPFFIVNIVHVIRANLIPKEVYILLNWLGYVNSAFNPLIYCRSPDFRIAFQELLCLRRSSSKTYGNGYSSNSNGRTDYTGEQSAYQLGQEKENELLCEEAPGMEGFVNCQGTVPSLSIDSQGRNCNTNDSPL
Protocol: β-Adrenergic Receptor Binding. […] At the end of the incubation, the suspensions were diluted with 4 ml of ice-cold incubation buffer and poured onto Whatman GF/B glass fiber filters under reduced pressure. Each filter was washed with a further 8 ml of ice-cold buffer, placed in a scintillation vial, and counted. Specific binding to the receptor was calculated as the difference between total binding determined in the absence of alprenolol and the nonspecific binding determined in the presence of alprenolol. […] All data was statistically analyzed by using a one-way analysis of variance (ANOVA).

[4] = biological target: T1, beta-adrenergic receptor; test: Washout experiment: irreversible binding after membrane pretreatment with compound 13; parameters: membranes prepared from rat reticulocytes; from tissue; host or cells: rat reticulocytes (blood cells), membranes; endogenous receptor
Protocol: In the pretreatment experiments, reticulocyte membrane protein (3 mg/ml) was incubated in 50 mM Tris·HCl buffer at pH 7.4, containing 5 mM MgCl2 without and with 20 nM compound 13 for 30 min at 32° C. A parallel incubation was also performed containing 20 nM compound 13 plus 10 μM nadolol. At the end of the incubation the tubes were filled (30 ml) with ice-cold incubation buffer and centrifuged at 48000 g for 15 min. The pellets were washed three more times by centrifugation and resuspension and the final pellets were resuspended in 1 ml of incubation buffer for assay. The membrane content of β-adrenergic receptors was determined with (-)-^125 I]-iodocyanopindolol (10-100 pM) as described above. The binding maximums and dissociation constants (KD) were determined from linear regression analysis of Scatchard plots.
Irreversible binding of compound (13) to the reticulocyte β-adrenergicreceptor was indicated by washout experiments.

[5] = test system: beta-adrenergic receptors; test: Loss of beta-adrenergic receptors in rat tissues after i.p. injection; format: in vivo; settings: for Specific Ligand Binding / % reduction of receptors from controls: 3 hr; for beta-2-receptor selectivity in vivo: receptor loss in rat tissues
Protocol: Rats were injected i.p. with either 2 or 5 mg/kg of structure (13) and 3 hr. later, the tissues were removed and assayed for the beta-adrenergic receptor content.

[6] = test system: ornithine decarboxylase; test: Induction of ornithine decarboxylase activity in the rat lung; format: in vivo; settings: for Fold increase of ornithine decarboxylase activity over the basal level / Ornithine decarboxylase activity: rat lung
[7] = test system: adenylate cyclase; test: Time course of cAMP production in rat reticulocytes with propranolol addition (FIG. 3); format: biochemical; settings: for irreversible binding and response at the beta-adrenergic receptor: conclusion from FIG. 3 and binding data; for cAMP production after propranolol added during incubation: propranolol added after 9 min ((-)isoproterenol) or 7 min (structure 13); for cAMP production, linearity with time: without propranolol
Protocol: Biochemical Methods. Adenylate Cyclase Activity. Rat reticulocytes were induced and membranes prepared as described by Baker et al, J. Biol. Chem., Vol. 260, p. 15820 (1985). […] These are the basal conditions. When stimulation of activity was measured, the assay also contained 0.5 mM GTP and varying concentrations of (-)-isoproterenol or the carbostyril derivatives. At the end of the incubation, 0.3 ml of 10 mM Tris.HCl buffer at pH 7.0 containing 5 mM EDTA was added to each tube and the tubes were placed in a boiling water bath for 5 min. After cooling to room temperature, the tubes were centrifuged for 5 min at 10000 g and the supernatant saved. The cAMP content of the supernatant was determined by a competitive protein binding assay. The amount of cAMP present was calculated from a standard curve determined with unlabeled cAMP. Enzyme activity was linear with time and protein through 10 min and 0.1 mg, respectively. Basal and GTP-stimulated activity values were substracted from the values obtained in the presence of ligands and the concentration of ligands that produced half-maximal activity (EC50) were determined by using a dose-effect analysis with an Apple IIe computer. Membrane protein content was determined by the Lowry method with bovine serum albumin as standard.

[8] = listed as structure wherein X is NHCOCH2 Br
[9] = 0.1 mg/kg i.p., 3 hours, basal 1.9 + 0.4
[10] = 0.1 mg/kg plus propranolol (5 mg/kg, 30 min before)

CC[C@H](NC(C)C)[C@H](O)c1ccc(O)c2[nH]c(=O)ccc12 (relative stereo) [procaterol, erythro-5-(1-hydroxy-2-isopropylaminobutyl)-8-hydroxycarbostyril]
beta-2 agonist and bronchodilator activity in words [1]: potent beta-2 agonist and a bronchodilator

CC(C)(Cc1ccc(I)cc1)NCC(O)c1ccc(O)c2[nH]c(=O)ccc12 (stereo not drawn) [Compound 11, 5-[2-[[1-(4-Iodophenyl)-2-methylprop-2-yl]amino]-1-hydroxyethyl]-8-hydroxycarbostyril]
Intrinsic Activity, adenylate cyclase [2]: 1.3 | intrinsic activity (efficacy) in words [2]: higher intrinsic activities than (-)isoproterenol | EC50 [2]: 5.6 ± 1.4 nM | IC50 [3]: 7.6 ± 1.3 nM

CC(C)(Cc1ccc(N)cc1)NCC(O)c1ccc(O)c2[nH]c(=O)ccc12 (stereo not drawn) [Compound 12]
Intrinsic Activity, adenylate cyclase [2]: 1.0 | intrinsic activity (efficacy) in words [2]: equal to the intrinsic activity (efficacy) of (-)isoproterenol | EC50 [2]: 14.2 ± 4.7 nM | IC50 [3]: 22 ± 3 nM

CC(C)(Cc1ccc(NC(=O)CBr)cc1)NCC(O)c1ccc(O)c2nc(O)ccc12 (stereo not drawn) [Compound 13]
receptor concentration after pretreatment and washout ([4]; 20 nM compound 13, four wash cycles, control 576±22, mean ±SD, n=3): 168±15 fmol/mg of protein | inhibition at 0.02 µM ([4]; 0.5 h, 20 nM compound 13, four wash cycles, read-out: decrease in the receptor concentration after pretreatment and washout): 71% | Kd ([4]; compound 13 treated membranes (20 nM), control 13±3, read-out: KD value for (-)-[^125 I]iodocyanopindolol binding to the remaining receptors): 0.011 ± 0.002 nM | loss of receptors in words ([5]; cerebral cortex, 5 mg/kg): no significant loss of receptors | Specific Ligand Binding ([5]; cerebral cortex, 5 mg/kg i.p., control 119 ± 10): 114 ± 14 fmol/mg protein | loss of receptors in words ([5]; heart or submaxillary gland, 5 mg/kg vs 2 mg/kg): no further loss of receptors was detected | % reduction of receptors from controls ([5]; heart, 2 mg/kg i.p.): 23% | Specific Ligand Binding ([5]; heart, 2 mg/kg i.p., control 22.3 ± 1.0): 17.1 ± 0.5 fmol/mg protein | % reduction of receptors from controls ([5]; heart, 5 mg/kg i.p.): 15% | Specific Ligand Binding ([5]; heart, 5 mg/kg i.p., control 22.3 ± 1.0): 18.9 ± 0.8 fmol/mg protein | blood brain barrier penetration ([5]; inferred from lack of receptor loss in cerebral cortex): cannot cross the blood brain barrier | % reduction of receptors from controls ([5]; lung, 2 mg/kg i.p.): 52% | Specific Ligand Binding ([5]; lung, 2 mg/kg i.p., control 658 ± 27): 318 ± 23 fmol/mg protein | % reduction of receptors from controls ([5]; lung, 5 mg/kg i.p.): 75% | Specific Ligand Binding ([5]; lung, 5 mg/kg i.p., control 658 ± 27): 166 ± 9 fmol/mg protein | beta-2-receptor selectivity in vivo [5]: receptor reductions were mainly due to losses of beta-2 receptors | beta-2-receptor selectivity in vivo [5, 8]: high degree of beta-2-receptor selectivity in vivo | % reduction of receptors from controls ([5]; spleen, 2 mg/kg i.p.): 42% | Specific Ligand Binding ([5]; spleen, 2 mg/kg i.p., control 53.2 ± 1.8): 31 ± 4 fmol/mg protein | % reduction of receptors from controls ([5]; spleen, 5 mg/kg i.p.): 65% | Specific Ligand Binding ([5]; spleen, 5 mg/kg i.p., control 53.2 ± 1.8): 19 ± 1.2 fmol/mg protein | % reduction of receptors from controls ([5]; submaxillary gland, 2 mg/kg i.p.): 23% | Specific Ligand Binding ([5]; submaxillary gland, 2 mg/kg i.p., control 98 ± 5.8): 75 ± 3 fmol/mg protein | % reduction of receptors from controls ([5]; submaxillary gland, 5 mg/kg i.p.): 21% | Specific Ligand Binding ([5]; submaxillary gland, 5 mg/kg i.p., control 98 ± 5.8): 77 ± 3.7 fmol/mg protein | Intrinsic Activity, adenylate cyclase [2]: 1.2 | intrinsic activity (efficacy) in words [2]: higher intrinsic activities than (-)isoproterenol | EC50 [2]: 8.5 ± 3.5 nM | Fold increase of ornithine decarboxylase activity over the basal level ([6]; 0.1 mg/kg i.p., 3 hours): 4.6 fold | Ornithine decarboxylase activity [6, 9]: 8.7 + 0.5 nmol CO2 Formed/g tissue/hr | Ornithine decarboxylase activity [6, 10]: 0.4 ± 0.06 nmol CO2 Formed/g tissue/hr | irreversible binding and response at the beta-adrenergic receptor [7]: irreversibly binds to the beta-adrenergic receptor and produces an irreversible response | irreversible binding and response at the beta-adrenergic receptor [7, 8]: appears to bind irreversibly to the receptor and produce irreversible agonist effects | cAMP production after propranolol added during incubation [7]: no change in the rate of cAMP production occurred | cAMP production with propranolol added at time 0 ([7]; propranolol added with structure 13 at time 0): stimulation of cAMP production was blocked | cAMP production, linearity with time [7]: linear through 14 min | IC50 [3]: 5.3 ± 0.8 nM

CC(C)(C)NCC(O)COc1cccc2c1CC(O)C(O)C2 (stereo not drawn) [nadolol, reference compound]
prevention of loss of specific binding sites by nadolol ([4]; nadolol 10 μM in preincubation with compound 13): the loss of specific binding sites was completely prevented

CC(C)NCC(O)COc1cccc2ccccc12 (stereo not drawn) [propranolol]
blocking of ornithine decarboxylase induction ([6]; propranolol 5 mg/kg 30 min before (-)isoproterenol or compound 13): completely blocked

(-)isoproterenol [reference compound]
Intrinsic Activity, adenylate cyclase [2]: 1.0 | EC50 [2]: 226 ± 1.4 nM | Fold increase of ornithine decarboxylase activity over the basal level ([6]; 0.1 mg/kg i.p., 3 hours): 6.5 fold | Ornithine decarboxylase activity [6, 9]: 11.8 + 1.7 nmol CO2 Formed/g tissue/hr | Fold increase of ornithine decarboxylase activity over the basal level ([6]; 0.1 mg/kg i.p., 3 hours, listed as (-)Isoproterenol): 6.2 fold | Ornithine decarboxylase activity [6, 10]: 0.4 ± 0.09 nmol CO2 Formed/g tissue/hr | cAMP production after propranolol added during incubation [7]: no further cAMP was produced | cAMP production, linearity with time [7]: linear through 14 min | IC50 ([3]; read-out: IC50 (concentration that inhibited CYP binding by 50%), rat reticulocyte membranes, mean ±SE, n = 3-6, 60 min): 327 ± 17 nM
